Measured values: BindingDB's records for doi:10.1002/cbic.201600636 (The University of Sydney, 2017)

Key:
Histone deacetylase 1 = Histone deacetylase 1 (Homo sapiens, UniProt Q13547); assay: Fluorometric Activity Assay
Protocol: A FLUOR DE LYS fluorometric activity assay kit (HDAC source: HeLa cell nuclear extract) and a FLUOR DE LYS HDAC1 fluorometric drug discovery assay kit (HDAC source: human recombinant HDAC1) were purchased from Enzo Life Sciences (Farmingdale, NY). HDAC inhibition assay was performed according to the instruction manuals. All samples were dissolved in dimethyl sulfoxide, except for 1 and 2, which were dissolved in the assay buffers provided. All assays were performed in triplicate, and errors were calculated as standard deviation.

Lipoxygenase = Lipoxygenase (Solanum tuberosum, UniProt O49150); assay: Colorimetric 5-LO Assay
Protocol: A colorimetric 5-LO assay kit (Lipoxygenase Inhibitor Screening Assay Kit) and potato 5-LO isolate were purchased from Cayman Chemicals (Ann Arbor, MI). 5-LO inhibition assay was performed according to the instruction manuals. All samples were dissolved in dimethyl sulfoxide, except for 1 and 2, which were dissolved in the assay buffers provided. All assays were performed in triplicate, and errors were calculated as standard deviation.

Sequence of Histone deacetylase 1 (Q13547 whole entry): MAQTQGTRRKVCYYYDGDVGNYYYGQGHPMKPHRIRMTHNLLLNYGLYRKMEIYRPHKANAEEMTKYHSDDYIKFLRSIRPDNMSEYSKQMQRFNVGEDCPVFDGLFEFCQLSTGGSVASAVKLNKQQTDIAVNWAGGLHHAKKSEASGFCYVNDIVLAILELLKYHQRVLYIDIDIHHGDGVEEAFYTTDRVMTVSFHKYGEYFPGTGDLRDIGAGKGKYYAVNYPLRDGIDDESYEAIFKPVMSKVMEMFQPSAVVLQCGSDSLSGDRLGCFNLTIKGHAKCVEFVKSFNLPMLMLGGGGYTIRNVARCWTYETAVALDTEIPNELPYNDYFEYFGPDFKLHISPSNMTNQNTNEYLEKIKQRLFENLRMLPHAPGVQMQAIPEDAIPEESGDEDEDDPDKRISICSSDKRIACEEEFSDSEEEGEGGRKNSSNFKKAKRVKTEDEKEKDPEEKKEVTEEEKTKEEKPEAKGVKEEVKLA
Sequence of Lipoxygenase (O49150 whole entry): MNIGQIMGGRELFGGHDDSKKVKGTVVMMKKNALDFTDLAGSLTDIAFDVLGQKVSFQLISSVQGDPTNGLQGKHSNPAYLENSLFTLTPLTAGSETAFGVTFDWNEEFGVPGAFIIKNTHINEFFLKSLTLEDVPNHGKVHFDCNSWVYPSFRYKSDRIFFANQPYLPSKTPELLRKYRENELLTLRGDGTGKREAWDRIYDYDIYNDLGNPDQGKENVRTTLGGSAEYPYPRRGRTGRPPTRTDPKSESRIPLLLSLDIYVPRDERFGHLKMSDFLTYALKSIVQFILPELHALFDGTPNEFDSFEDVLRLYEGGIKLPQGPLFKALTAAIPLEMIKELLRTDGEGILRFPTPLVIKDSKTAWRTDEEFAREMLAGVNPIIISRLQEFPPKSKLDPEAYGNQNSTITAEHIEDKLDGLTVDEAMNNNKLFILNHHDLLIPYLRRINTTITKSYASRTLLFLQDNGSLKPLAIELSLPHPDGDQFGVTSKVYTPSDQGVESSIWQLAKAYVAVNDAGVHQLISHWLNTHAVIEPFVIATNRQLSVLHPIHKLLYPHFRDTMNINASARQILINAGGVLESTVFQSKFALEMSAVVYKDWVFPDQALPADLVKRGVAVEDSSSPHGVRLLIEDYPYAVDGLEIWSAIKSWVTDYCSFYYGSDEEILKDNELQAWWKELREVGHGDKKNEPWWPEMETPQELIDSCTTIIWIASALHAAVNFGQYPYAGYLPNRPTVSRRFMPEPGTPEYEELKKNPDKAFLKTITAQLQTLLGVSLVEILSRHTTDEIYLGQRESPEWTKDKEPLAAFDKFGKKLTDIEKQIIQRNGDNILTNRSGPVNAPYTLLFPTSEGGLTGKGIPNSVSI

Row | SMILES | IC50 (Histone deacetylase 1) | IC50 (Lipoxygenase)
1 | CC(=O)N(O)CCCCCNC(=O)CCC(=O)N(O)CCCCCNC(=O)CCC(=O)N(O)CCCCCN1C(=O)c2cccc3cccc(c23)C1=O [BIQD-substituted compound, S1] | 258 µM | 
2 | CC(=O)N(O)C/C=C/c1cccc(Oc2ccccc2)c1 [N-(3-phenoxycinnamyl)acetohydroxamic acid] |  | 17.1 µM
3 | CC(=O)N(O)CCCCCN1C(=O)c2cccc3cccc(c23)C1=O [BIQD-substituted compound, S2] | 172 µM | 58.9 µM
4 | CC(=O)N(O)CCCCCNC(=O)CCC(=O)N(O)CCCCCN1C(=O)c2cccc3cccc(c23)C1=O [BIQD-substituted compound, S5] | 314 µM | 2340 µM
5 | O=C(CCCCCN1C(=O)c2cccc3cccc(c23)C1=O)NO [6-(1,3-Dioxo-1H,3H-benzo[de]isoquinolin-2-yl)-hexanoic acid hydroxyamide] |  | 212 µM
